Assay results as given in PubChem BioAssay (NCI).
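Test compounds were applied to cells in 96-well plates for 48 hours at 5 doses. GI50 = concentration required for 50% inhibition of growth. TGI: concentration producing complete growth inhibition.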

Experiments:
Assay in all cases: NCI anticancer screen, dose series, 48 h
[1] = system: 786-0 renal
[2] = system: A498 renal
[3] = system: A549 NSCLC
[4] = system: ACHN renal
[5] = system: BT-549 breast
[6] = system: CAKI-1 renal
[7] = system: CCRF-CEM leukemia
[8] = system: COLO 205 colon
[9] = system: DU-145 prostate
[10] = system: EKVX NSCLC
[11] = system: HCC-2998 colon
[12] = system: HCT-116 colon
[13] = system: HCT-15 colon
[14] = system: HL-60(TB) leukemia
[15] = system: HOP-62 NSCLC
[16] = system: HOP-92 NSCLC
[17] = system: HS 578T breast
[18] = system: HT29 colon
[19] = system: IGROV1 ovarian
[20] = system: K-562 leukemia
[21] = system: KM12 colon
[22] = system: LOX IMVI melanoma
[23] = system: MALME-3M melanoma
[24] = system: MCF7 breast
[25] = system: MDA-MB-231 breast
[26] = system: MDA-MB-435
[27] = system: MOLT-4 leukemia
[28] = system: NCI-H226 lung
[29] = system: NCI-H23 lung
[30] = system: NCI-H460 lung
[31] = system: NCI-H522 lung
[32] = system: NCI/ADR-RES ovarian
[33] = system: OVCAR-3 ovarian
[34] = system: OVCAR-4 ovarian
[35] = system: OVCAR-5 ovarian
[36] = system: OVCAR-8 ovarian
[37] = system: PC-3 prostate
[38] = system: RPMI-8226 leukemia
[39] = system: RXF 393 renal
[40] = system: SF-268 CNS
[41] = system: SF-295 CNS
[42] = system: SF-539 CNS
[43] = system: SK-MEL-2 melanoma
[44] = system: SK-MEL-28 melanoma
[45] = system: SK-MEL-5 melanoma
[46] = system: SK-OV-3 ovarian
[47] = system: SN12C renal
[48] = system: SNB-19 CNS
[49] = system: SNB-75 CNS
[50] = system: SR leukemia
[51] = system: SW-620 colon
[52] = system: T-47D breast
[53] = system: TK-10 renal
[54] = system: U251 CNS
[55] = system: UACC-257 melanoma
[56] = system: UACC-62 melanoma
[57] = system: UO-31 renal

CS(=O)(=O)c1ccc(Oc2cc(F)cc(C#N)c2)c2c1[C@H](O)[C@H](F)[C@H]2F
GI50 [1]: > 100 µM | TGI [1]: > 100 µM | GI50 [2]: > 100 µM | TGI [2]: > 100 µM | GI50 [3]: > 100 µM | TGI [3]: > 100 µM | GI50 [4]: > 100 µM | TGI [4]: > 100 µM | GI50 [5]: > 100 µM | TGI [5]: > 100 µM | GI50 [6]: > 100 µM | TGI [6]: > 100 µM | GI50 [7]: > 100 µM | TGI [7]: > 100 µM | GI50 [8]: > 100 µM | TGI [8]: > 100 µM | GI50 [9]: > 100 µM | TGI [9]: > 100 µM | GI50 [10]: > 100 µM | TGI [10]: > 100 µM | GI50 [11]: > 100 µM | TGI [11]: > 100 µM | GI50 [12]: > 100 µM | TGI [12]: > 100 µM | GI50 [13]: > 100 µM | TGI [13]: > 100 µM | GI50 [14]: > 100 µM | TGI [14]: > 100 µM | GI50 [15]: > 100 µM | TGI [15]: > 100 µM | GI50 [16]: > 100 µM | TGI [16]: > 100 µM | GI50 [17]: > 100 µM | TGI [17]: > 100 µM | GI50 [18]: > 100 µM | TGI [18]: > 100 µM | GI50 [19]: > 100 µM | TGI [19]: > 100 µM | GI50 [20]: > 100 µM | TGI [20]: > 100 µM | GI50 [21]: > 100 µM | TGI [21]: > 100 µM | GI50 [22]: > 100 µM | TGI [22]: > 100 µM | GI50 [23]: > 100 µM | TGI [23]: > 100 µM | GI50 [24]: > 100 µM | TGI [24]: > 100 µM | GI50 [25]: > 100 µM | TGI [25]: > 100 µM | GI50 [26]: > 100 µM | TGI [26]: > 100 µM | GI50 [27]: > 100 µM | TGI [27]: > 100 µM | GI50 [28]: > 100 µM | TGI [28]: > 100 µM | GI50 [29]: > 100 µM | TGI [29]: > 100 µM | GI50 [30]: > 100 µM | TGI [30]: > 100 µM | GI50 [31]: > 100 µM | TGI [31]: > 100 µM | GI50 [32]: > 100 µM | TGI [32]: > 100 µM | GI50 [33]: > 100 µM | TGI [33]: > 100 µM | GI50 [34]: > 100 µM | TGI [34]: > 100 µM | GI50 [35]: > 100 µM | TGI [35]: > 100 µM | GI50 [36]: > 100 µM | TGI [36]: > 100 µM | GI50 [37]: > 100 µM | TGI [37]: > 100 µM | GI50 [38]: > 100 µM | TGI [38]: > 100 µM | GI50 [39]: 2.53 µM | TGI [39]: > 100 µM | GI50 [40]: > 100 µM | TGI [40]: > 100 µM | GI50 [41]: > 100 µM | TGI [41]: > 100 µM | GI50 [42]: > 100 µM | TGI [42]: > 100 µM | GI50 [43]: > 100 µM | TGI [43]: > 100 µM | GI50 [44]: > 100 µM | TGI [44]: > 100 µM | GI50 [45]: > 100 µM | TGI [45]: > 100 µM | GI50 [46]: > 100 µM | TGI [46]: > 100 µM | GI50 [47]: > 100 µM | TGI [47]: > 100 µM | GI50 [48]: > 100 µM | TGI [48]: > 100 µM | GI50 [49]: > 100 µM | TGI [49]: > 100 µM | GI50 [50]: > 100 µM | TGI [50]: > 100 µM | GI50 [51]: > 100 µM | TGI [51]: > 100 µM | GI50 [52]: > 100 µM | TGI [52]: > 100 µM | GI50 [53]: > 100 µM | TGI [53]: > 100 µM | GI50 [54]: > 100 µM | TGI [54]: > 100 µM | GI50 [55]: > 100 µM | TGI [55]: > 100 µM | GI50 [56]: > 100 µM | TGI [56]: > 100 µM | GI50 [57]: > 100 µM | TGI [57]: > 100 µM
